Species on record: Rattus norvegicus
Assay: DrugMatrix - Regimen: Daily Repeat
Assay type: toxicity, organism-based, Sprague-Dawley
Set-up: regimen Daily Repeat, gender Male, age 6-8 weeks
Details: in vivo, po, route oral GAVAGE, vehicle .5 % CMC; for ABSOLUTE BASOPHIL / ABSOLUTE EOSINOPHIL / ABSOLUTE LYMPHOCYTE / ABSOLUTE MONOCYTE / ABSOLUTE SEGMENTED NEUTROPHIL / BASOPHIL / EOSINOPHIL / ERYTHROCYTE COUNT / HEMATOCRIT / HEMOGLOBIN / LEUKOCYTE COUNT / LYMPHOCYTE / MEAN CORPUSCULAR HEMOGLOBIN / MEAN CORPUSCULAR HEMOGLOBIN CONCENTRATION / MEAN CORPUSCULAR VOLUME / MONOCYTE / NEUTROPHIL / NUCLEATED RED BLOOD CELLS / PLATELET COUNT: tissue Blood; for ALANINE AMINOTRANSFERASE / ALBUMIN / ALKALINE PHOSPHATASE / ASPARTATE AMINOTRANSFERASE / BLOOD UREA NITROGEN / CARBON DIOXIDE / CHLORIDE / CHOLESTEROL / CREATINE PHOSPHOKINASE / CREATININE / GLUCOSE / LACTATE DEHYDROGENASE / LIPASE / PHOSPHORUS / POTASSIUM / SODIUM / TOTAL BILIRUBIN / TOTAL PROTEIN / URIC ACID: tissue Plasma
[1] = 10 mg/kg, 72 h, dose level Low, time 3 day
[2] = 10 mg/kg, 120 h, dose level Low, time 5 day
[3] = 2000 mg/kg, 72 h, dose level High, time 3 day
[4] = 2000 mg/kg, 120 h, dose level High, time 5 day

## CC(=O)O[C@]1(C(C)=O)CC[C@H]2[C@@H]3C=C(Cl)C4=CC(=O)CC[C@]4(C)[C@H]3CC[C@@]21C [CHLORMADINONE ACETATE]
[1]
  ABSOLUTE BASOPHIL: 0 CELLS/uL
  ABSOLUTE EOSINOPHIL: 58.33 CELLS/uL
  ABSOLUTE LYMPHOCYTE: 11175 CELLS/uL
  ABSOLUTE MONOCYTE: 59.67 CELLS/uL
  ABSOLUTE SEGMENTED NEUTROPHIL: 507 CELLS/uL
  BASOPHIL: 0%
  EOSINOPHIL: 0.33%
  ERYTHROCYTE COUNT: 5.63 x10E6/uL
  HEMATOCRIT: 35.5%
  HEMOGLOBIN: 14.3 G/DL
  LEUKOCYTE COUNT: 11.8 x10E3/uL
  LYMPHOCYTE: 94.67%
  MEAN CORPUSCULAR HEMOGLOBIN: 25.37 pg
  MEAN CORPUSCULAR HEMOGLOBIN CONCENTRATION: 40.27 G/DL
  MEAN CORPUSCULAR VOLUME: 63 fL
  MONOCYTE: 0.67%
  NEUTROPHIL: 4.33%
  NUCLEATED RED BLOOD CELLS: 0 /100WBC
  PLATELET COUNT: 925.33 x10E3/uL
  ALANINE AMINOTRANSFERASE: 52 u/L
  ALBUMIN: 4.5 G/DL
  ALKALINE PHOSPHATASE: 475 u/L
  ASPARTATE AMINOTRANSFERASE: 70.67 u/L
  BLOOD UREA NITROGEN: 17.67 mg/dL
  CARBON DIOXIDE: 33 mmol/L
  CHLORIDE: 101 MEQ/L
  CHOLESTEROL: 81.67 mg/dL
  CREATINE PHOSPHOKINASE: 138.33 u/L
  CREATININE: 0.17 mg/dL
  GLUCOSE: 135.67 mg/dL
  LACTATE DEHYDROGENASE: 134.67 u/L
  LIPASE: 12 u/L
  PHOSPHORUS: 11.17 mg/dL
  POTASSIUM: 6.06 MEQ/L
  SODIUM: 149.35 MEQ/L
  TOTAL BILIRUBIN: 0.3 mg/dL
  TOTAL PROTEIN: 6.37 G/DL
  URIC ACID: 0.67 mg/dL
[2]
  ABSOLUTE BASOPHIL: 0 CELLS/uL
  ABSOLUTE EOSINOPHIL: 0 CELLS/uL
  ABSOLUTE LYMPHOCYTE: 14416.33 CELLS/uL
  ABSOLUTE MONOCYTE: 46.33 CELLS/uL
  ABSOLUTE SEGMENTED NEUTROPHIL: 1304 CELLS/uL
  BASOPHIL: 0%
  EOSINOPHIL: 0%
  ERYTHROCYTE COUNT: 6.23 x10E6/uL
  HEMATOCRIT: 37.17%
  HEMOGLOBIN: 14.57 G/DL
  LEUKOCYTE COUNT: 15.77 x10E3/uL
  LYMPHOCYTE: 91.67%
  MEAN CORPUSCULAR HEMOGLOBIN: 23.47 pg
  MEAN CORPUSCULAR HEMOGLOBIN CONCENTRATION: 39.23 G/DL
  MEAN CORPUSCULAR VOLUME: 59.77 fL
  MONOCYTE: 0.33%
  NEUTROPHIL: 8%
  NUCLEATED RED BLOOD CELLS: 0 /100WBC
  PLATELET COUNT: 1116.33 x10E3/uL
  ALANINE AMINOTRANSFERASE: 54.33 u/L
  ALBUMIN: 4.47 G/DL
  ALKALINE PHOSPHATASE: 380.67 u/L
  ASPARTATE AMINOTRANSFERASE: 92.67 u/L
  BLOOD UREA NITROGEN: 14 mg/dL
  CARBON DIOXIDE: 25.67 mmol/L
  CHLORIDE: 102.33 MEQ/L
  CHOLESTEROL: 79.67 mg/dL
  CREATINE PHOSPHOKINASE: 290.67 u/L
  CREATININE: 0.13 mg/dL
  GLUCOSE: 156.67 mg/dL
  LACTATE DEHYDROGENASE: 269 u/L
  LIPASE: 9.67 u/L
  PHOSPHORUS: 12.67 mg/dL
  POTASSIUM: 7.15 MEQ/L
  SODIUM: 146.13 MEQ/L
  TOTAL BILIRUBIN: 0.2 mg/dL
  TOTAL PROTEIN: 6.27 G/DL
  URIC ACID: 1.77 mg/dL
[3]
  ABSOLUTE BASOPHIL: 0 CELLS/uL
  ABSOLUTE EOSINOPHIL: 87.33 CELLS/uL
  ABSOLUTE LYMPHOCYTE: 10368.67 CELLS/uL
  ABSOLUTE MONOCYTE: 145 CELLS/uL
  ABSOLUTE SEGMENTED NEUTROPHIL: 665.67 CELLS/uL
  BASOPHIL: 0%
  EOSINOPHIL: 0.67%
  ERYTHROCYTE COUNT: 5.63 x10E6/uL
  HEMATOCRIT: 36.4%
  HEMOGLOBIN: 14.6 G/DL
  LEUKOCYTE COUNT: 11.27 x10E3/uL
  LYMPHOCYTE: 90.67%
  MEAN CORPUSCULAR HEMOGLOBIN: 25.93 pg
  MEAN CORPUSCULAR HEMOGLOBIN CONCENTRATION: 40.1 G/DL
  MEAN CORPUSCULAR VOLUME: 64.67 fL
  MONOCYTE: 1.33%
  NEUTROPHIL: 7.33%
  NUCLEATED RED BLOOD CELLS: 0 /100WBC
  PLATELET COUNT: 1192 x10E3/uL
  ALANINE AMINOTRANSFERASE: 57 u/L
  ALBUMIN: 4.57 G/DL
  ALKALINE PHOSPHATASE: 388.67 u/L
  ASPARTATE AMINOTRANSFERASE: 82 u/L
  BLOOD UREA NITROGEN: 16.33 mg/dL
  CARBON DIOXIDE: 29 mmol/L
  CHLORIDE: 99 MEQ/L
  CHOLESTEROL: 79.67 mg/dL
  CREATINE PHOSPHOKINASE: 341.33 u/L
  CREATININE: 0.18 mg/dL
  GLUCOSE: 149.33 mg/dL
  LACTATE DEHYDROGENASE: 132.67 u/L
  LIPASE: 10 u/L
  PHOSPHORUS: 12.23 mg/dL
  POTASSIUM: 6.81 MEQ/L
  SODIUM: 144.97 MEQ/L
  TOTAL BILIRUBIN: 0.17 mg/dL
  TOTAL PROTEIN: 6.6 G/DL
  URIC ACID: 1.8 mg/dL
[4]
  ABSOLUTE BASOPHIL: 0 CELLS/uL
  ABSOLUTE EOSINOPHIL: 0 CELLS/uL
  ABSOLUTE LYMPHOCYTE: 10781.67 CELLS/uL
  ABSOLUTE MONOCYTE: 45 CELLS/uL
  ABSOLUTE SEGMENTED NEUTROPHIL: 840 CELLS/uL
  BASOPHIL: 0%
  EOSINOPHIL: 0%
  ERYTHROCYTE COUNT: 6.06 x10E6/uL
  HEMATOCRIT: 36.83%
  HEMOGLOBIN: 14.67 G/DL
  LEUKOCYTE COUNT: 11.67 x10E3/uL
  LYMPHOCYTE: 92%
  MEAN CORPUSCULAR HEMOGLOBIN: 24.23 pg
  MEAN CORPUSCULAR HEMOGLOBIN CONCENTRATION: 39.8 G/DL
  MEAN CORPUSCULAR VOLUME: 60.87 fL
  MONOCYTE: 0.33%
  NEUTROPHIL: 7.67%
  NUCLEATED RED BLOOD CELLS: 0.33 /100WBC
  PLATELET COUNT: 996.33 x10E3/uL
  ALANINE AMINOTRANSFERASE: 60.33 u/L
  ALBUMIN: 4.3 G/DL
  ALKALINE PHOSPHATASE: 310.33 u/L
  ASPARTATE AMINOTRANSFERASE: 77.67 u/L
  BLOOD UREA NITROGEN: 17.67 mg/dL
  CARBON DIOXIDE: 24.67 mmol/L
  CHLORIDE: 102.33 MEQ/L
  CHOLESTEROL: 67.33 mg/dL
  CREATINE PHOSPHOKINASE: 145.33 u/L
  CREATININE: 0.2 mg/dL
  GLUCOSE: 139 mg/dL
  LACTATE DEHYDROGENASE: 117.33 u/L
  LIPASE: 9.67 u/L
  PHOSPHORUS: 12.2 mg/dL
  POTASSIUM: 7.04 MEQ/L
  SODIUM: 143.63 MEQ/L
  TOTAL BILIRUBIN: 0.2 mg/dL
  TOTAL PROTEIN: 6.37 G/DL
  URIC ACID: 1.4 mg/dL

From ChEMBL document CHEMBL3885881, “DrugMatrix”
